ChEMBL document CHEMBL1155531, “Structure guided design of 5-arylindazole glucocorticoid receptor agonists and antagonists” (J Med Chem, 2010)

Key:
Glucocorticoid receptor [1] = target: T1, Glucocorticoid receptor (Homo sapiens, UniProt P04150); test: Displacement of fluorescent-labeled Dexamethasone from GR by fluorescent polarization assay
T1 sequence (P04150 whole entry): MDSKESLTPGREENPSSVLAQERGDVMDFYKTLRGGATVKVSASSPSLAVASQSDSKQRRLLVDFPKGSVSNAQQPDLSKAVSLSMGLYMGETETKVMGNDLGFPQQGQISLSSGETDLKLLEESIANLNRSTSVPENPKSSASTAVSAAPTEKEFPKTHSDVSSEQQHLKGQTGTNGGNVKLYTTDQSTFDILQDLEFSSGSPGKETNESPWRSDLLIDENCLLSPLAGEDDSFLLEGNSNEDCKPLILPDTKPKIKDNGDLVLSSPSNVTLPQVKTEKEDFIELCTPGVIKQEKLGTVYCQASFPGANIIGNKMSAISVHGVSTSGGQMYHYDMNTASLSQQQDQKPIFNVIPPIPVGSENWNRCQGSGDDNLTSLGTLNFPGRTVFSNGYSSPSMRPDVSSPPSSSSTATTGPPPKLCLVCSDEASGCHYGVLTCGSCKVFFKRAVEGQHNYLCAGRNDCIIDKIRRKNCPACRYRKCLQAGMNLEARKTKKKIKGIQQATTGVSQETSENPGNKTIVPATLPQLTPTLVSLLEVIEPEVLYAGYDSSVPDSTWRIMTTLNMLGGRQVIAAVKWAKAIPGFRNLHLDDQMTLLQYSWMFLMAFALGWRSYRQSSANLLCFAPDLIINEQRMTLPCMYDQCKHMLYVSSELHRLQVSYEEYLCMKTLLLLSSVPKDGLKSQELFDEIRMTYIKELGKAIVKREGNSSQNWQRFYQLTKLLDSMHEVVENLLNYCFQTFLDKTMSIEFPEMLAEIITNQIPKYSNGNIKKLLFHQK

Glucocorticoid receptor [2] = target: T1, Glucocorticoid receptor; test: Activity at GR in human A549 cells by NF-kappaB transrepression assay; assay type: cell-based
Glucocorticoid receptor [3] = target: T1, Glucocorticoid receptor; test: Agonist activity at GR in human A549 cells transfected with luciferase gene linked to MMTV promoter assessed as luciferase transactivation activity after 24 hrs; assay type: functional, cell-based
[4] = Antiinflammatory activity in human primary synovial fibroblasts assessed as inhibition of IL1-induced IL8 release after 18 hrs by MSD technology; assay type: functional
[5] = Toxicity in human skeletal muscle cells assessed as increase in glutamine synthase mRNA level after 18 hrs by PCR
Hepatocyte = test: Toxicity in human hepatocytes assessed as increase in PEPCK mRNA level after 18 hrs by PCR; assay type: cell-based
[6] = Plasma clearance in CD rat at 1 mg/kg, po and 1 mg/kg, iv; assay type: ADME, organism-based
[7] = Elimination half life in CD rat at 1 mg/kg, po and 1 mg/kg, iv; assay type: ADME, organism-based; conditions: in vivo, read-out: beta t1/2 (converted)
[8] = Oral bioavailability in CD rat at 1 mg/kg; assay type: ADME, organism-based; conditions: in vivo
[9] = Plasma clearance in DBA1 mouse at 1 mg/kg, po and 1 mg/kg, iv; assay type: ADME, organism-based
[10] = Elimination half life in DBA1 mouse at 1 mg/kg, po and 1 mg/kg, iv; assay type: ADME, organism-based; conditions: in vivo, read-out: beta t1/2 (converted)
[11] = Oral bioavailability in DBA1 mouse at 1 mg/kg; assay type: ADME, organism-based; conditions: in vivo
[12] = Tmax in CD rat at 1 mg/kg, po; assay type: ADME, organism-based; design: dose 1 mg/kg, route oral; conditions: in vivo
[13] = Tmax in DBA1 mouse at 1 mg/kg, po; assay type: ADME, organism-based; design: dose 1 mg/kg, route oral; conditions: in vivo
[14] = Plasma concentration in mouse bearing mouse NIH-3T3 cells integrated with MMTV reporter gene at 10 mg/kg, po after 1 hr; assay type: ADME, organism-based, NIH3T3; design: dose 10 mg/kg, route oral
[15] = Relative plasma concentration in mouse assessed as ratio of plasma concentration in mouse at 10 mg/kg, po to IC50 for NF-kappaB transrepression activity in A549 cells expressing MMTV reporter gene; assay type: ADME, organism-based; design: dose 10 mg/kg, route oral; conditions: in vivo
[16] = Relative fraction unbound in mouse assessed as ratio of fraction unbound in mouse at 10 mg/kg, po to IC50 for NF-kappaB transrepression activity in A549 cells expressing MMTV reporter gene; assay type: ADME, organism-based; design: dose 10 mg/kg, route oral; conditions: in vivo
[17] = Relative plasma concentration in mouse assessed as ratio of plasma concentration in mouse at 1 mg/kg, po to IC50 for NF-kappaB transrepression activity in A549 cells expressing MMTV reporter gene; assay type: ADME, organism-based; design: dose 1 mg/kg, route oral; conditions: in vivo
[18] = Relative fraction unbound in mouse assessed as ratio of fraction unbound in mouse at 1 mg/kg, po to IC50 for NF-kappaB transrepression activity in A549 cells expressing MMTV reporter gene; assay type: ADME, organism-based; design: dose 1 mg/kg, route oral; conditions: in vivo
[19] = Plasma concentration in mouse bearing mouse NIH-3T3 cells integrated with MMTV reporter gene at 0.1 mg/kg, po after 1 hr; assay type: ADME, organism-based, NIH3T3; design: dose 0.1 mg/kg, route oral
[20] = Relative plasma concentration in mouse assessed as ratio of plasma concentration in mouse at 0.1 mg/kg, po to IC50 for NF-kappaB transrepression activity in A549 cells expressing MMTV reporter gene; assay type: ADME, organism-based; design: dose 0.1 mg/kg, route oral; conditions: in vivo
Mus musculus [21] = test: Inhibition of IL1-induced circulating IL6 release in mouse at 10 mg/kg, po; assay type: functional
Mus musculus [22] = test: Inhibition of IL1-induced circulating IL6 release in mouse at 100 mg/kg, po; assay type: functional
Androgen receptor = target: T2, Androgen receptor (Homo sapiens, UniProt P10275)
T2 sequence (P10275 whole entry): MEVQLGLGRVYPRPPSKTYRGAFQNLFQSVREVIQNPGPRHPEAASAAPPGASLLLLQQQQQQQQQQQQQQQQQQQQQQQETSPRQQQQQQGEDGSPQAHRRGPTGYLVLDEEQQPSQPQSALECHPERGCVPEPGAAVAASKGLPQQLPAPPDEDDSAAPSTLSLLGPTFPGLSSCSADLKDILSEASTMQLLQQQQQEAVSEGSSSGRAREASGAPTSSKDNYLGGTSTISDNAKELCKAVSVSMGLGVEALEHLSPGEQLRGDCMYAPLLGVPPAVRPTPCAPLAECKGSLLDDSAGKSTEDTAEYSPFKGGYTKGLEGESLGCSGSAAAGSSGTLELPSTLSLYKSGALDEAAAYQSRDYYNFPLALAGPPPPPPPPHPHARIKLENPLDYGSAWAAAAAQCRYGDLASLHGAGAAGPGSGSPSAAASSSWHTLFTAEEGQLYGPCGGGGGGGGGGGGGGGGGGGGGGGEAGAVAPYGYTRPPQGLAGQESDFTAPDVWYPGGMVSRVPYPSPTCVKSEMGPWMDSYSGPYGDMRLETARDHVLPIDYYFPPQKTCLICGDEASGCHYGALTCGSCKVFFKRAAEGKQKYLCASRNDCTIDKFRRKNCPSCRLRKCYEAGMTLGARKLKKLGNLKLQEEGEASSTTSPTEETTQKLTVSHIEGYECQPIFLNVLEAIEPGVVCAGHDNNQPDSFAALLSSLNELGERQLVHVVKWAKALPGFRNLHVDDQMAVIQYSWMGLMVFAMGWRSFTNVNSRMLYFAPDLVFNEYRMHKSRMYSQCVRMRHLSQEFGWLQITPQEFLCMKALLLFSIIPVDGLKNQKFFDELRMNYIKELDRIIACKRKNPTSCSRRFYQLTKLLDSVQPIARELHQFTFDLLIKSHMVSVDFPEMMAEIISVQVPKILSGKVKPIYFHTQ

SMILES: O=S(=O)(Cc1ccccc1)Nc1ccc(-c2ccc3c(cnn3-c3ccc(F)cc3)c2)c(C(F)(F)F)c1
- IC50 (Glucocorticoid receptor [1]): 10 nM
- IC50 (Glucocorticoid receptor [2]): 10 nM
- EC50 (Glucocorticoid receptor [3]): 20 nM
- IC50 [4]: 2 nM
- Activity [5]: Toxic
- Activity (Hepatocyte): Toxic
- clearance [6]: 8 mL/min/kg
- half-life [7]: 3.3 h
- bioavailability [8]: > 22%
- clearance [9]: 8 mL/min/kg
- half-life [10]: 4 h
- bioavailability [11]: > 51%
- Tmax [12]: 6 h
- Tmax [13]: 6 h
- concentration at 1 h [14]: 2730 nM
- fold change (FC) [15]: 273
- fold change (FC) [16]: 0.5
- fold change (FC) [17]: 29
- fold change (FC) [18]: 0.06
- concentration at 1 h [19]: 25 nM
- fold change (FC) [20]: 2.5
- inhibition in vivo at 10 mg/kg (Mus musculus [21]): 44%
- inhibition in vivo at 100 mg/kg (Mus musculus [22]): 57%
- IC50 (Androgen receptor): > 10000 nM
